Read-outs that look alike come from different tables or passages of the source.
What was measured:
[1] = official classification: non-sensitizer, irritant, or sensitizing Extreme/Strong/Moderate/Weak; cited from earlier work
[2] = system: ARE gene family (AKR1B10, AKR1C1, AKR1C2, CYP1B1, FTH1P, FTL, G6PD, GCLM, NQO2, SLC7A11, TXNRD1, UGT1A1, UGT1A9, YWHAZ, CD36, CYP1A1, GCLC, HMOX1, NQO1, PSME2 …); conditions: human

Which Class [1] does the source give for Oc1ccc(O)cc1 [Hydroquinone] here?
Its Class is “S”.

What about the “AHR expression compared to control” value ([2]; 15 min, 0.1 %) of the same molecule?
Its value is 0.8.

What about the “ARE >1.3 (NUMBER OF GENES)” value ([2]; 15 min, 0.1 %) of the same molecule?
Its value is 5.

What about the “GCLM expression compared to control” value ([2]; 15 min, 0.1 %) of the same molecule?
The value was 0.7.

And the “NQO2 expression compared to control” value ([2]; 15 min, 0.1 %)?
Its value is 0.9.

What about the “SLC7A11 expression compared to control” value ([2]; 15 min, 0.1 %) of the same molecule?
Its value is 1.3.

And the “TOTAL ARE (NUMBER OF GENES)” value ([2]; 15 min, 0.1 %)?
The value was 5.

What about the “UGT1A9 expression compared to control” value ([2]; 15 min, 0.1 %) of the same molecule?
The value was 0.8.

And the “AHR expression compared to control” value ([2]; 15 min, 1 %)?
The value was 0.6.

And the “ARE >1.3 (NUMBER OF GENES)” value ([2]; 15 min, 1 %)?
The value was 9.

And the “GCLM expression compared to control” value ([2]; 15 min, 1 %)?
The value was 1.8.

And the “NQO2 expression compared to control” value ([2]; 15 min, 1 %)?
The value was 1.4.

What about the “SLC7A11 expression compared to control” value ([2]; 15 min, 1 %) of the same molecule?
The value was 1.5.

And the “TOTAL ARE (NUMBER OF GENES)” value ([2]; 15 min, 1 %)?
Its value is 9.

And the “UGT1A9 expression compared to control” value ([2]; 15 min, 1 %)?
Its value is 1.5.

What about the “AHR expression compared to control” value ([2]; 15 min, 10 %) of the same molecule?
The value was 0.6.

What about the “ARE >1.3 (NUMBER OF GENES)” value ([2]; 15 min, 10 %) of the same molecule?
Its value is 13.

And the “GCLM expression compared to control” value ([2]; 15 min, 10 %)?
The value was 2.0.

What about the “NQO2 expression compared to control” value ([2]; 15 min, 10 %) of the same molecule?
Its value is 1.5.

What about the “SLC7A11 expression compared to control” value ([2]; 15 min, 10 %) of the same molecule?
The value was 1.6.

What about the “TOTAL ARE (NUMBER OF GENES)” value ([2]; 15 min, 10 %) of the same molecule?
Its value is 13.

And the “UGT1A9 expression compared to control” value ([2]; 15 min, 10 %)?
The value was 1.3.

What about the “ARE >1.3 (NUMBER OF GENES)” value ([2]; 15 min, 50 %) of the same molecule?
Its value is 15.

What about the “TOTAL ARE (NUMBER OF GENES)” value ([2]; 15 min, 50 %) of the same molecule?
Its value is 15.

And the “AKR1B10 expression compared to control” value ([2]; 6 h, 0.1 %)?
Its value is 0.9.

And the “AKR1C1 expression compared to control” value ([2]; 6 h, 0.1 %)?
Its value is 1.2.

And the “AKR1C2 expression compared to control” value ([2]; 6 h, 0.1 %)?
Its value is 0.7.

And the “CD36 expression compared to control” value ([2]; 6 h, 0.1 %)?
The value was 0.7.

And the “CYP1A1 expression compared to control” value ([2]; 6 h, 0.1 %)?
Its value is 8.0.

And the “CYP1B1 expression compared to control” value ([2]; 6 h, 0.1 %)?
The value was 1.8.

And the “FTH1P expression compared to control” value ([2]; 6 h, 0.1 %)?
Its value is 1.2.

What about the “FTL expression compared to control” value ([2]; 6 h, 0.1 %) of the same molecule?
The value was 1.5.

And the “GCLC expression compared to control” value ([2]; 6 h, 0.1 %)?
The value was 1.3.

What about the “HMOX1 expression compared to control” value ([2]; 6 h, 0.1 %) of the same molecule?
The value was 1.1.

What about the “NQO1 expression compared to control” value ([2]; 6 h, 0.1 %) of the same molecule?
Its value is 1.2.

What about the “S100A8 expression compared to control” value ([2]; 6 h, 0.1 %) of the same molecule?
The value was 1.1.

What about the “TXNRD1 expression compared to control” value ([2]; 6 h, 0.1 %) of the same molecule?
Its value is 2.3.

And the “UGT1A1 expression compared to control” value ([2]; 6 h, 0.1 %)?
The value was 1.7.

And the “AKR1B10 expression compared to control” value ([2]; 6 h, 1 %)?
The value was 1.0.

What about the “AKR1C1 expression compared to control” value ([2]; 6 h, 1 %) of the same molecule?
Its value is 2.0.

What about the “AKR1C2 expression compared to control” value ([2]; 6 h, 1 %) of the same molecule?
The value was 1.3.

And the “CD36 expression compared to control” value ([2]; 6 h, 1 %)?
The value was 0.7.

What about the “CYP1A1 expression compared to control” value ([2]; 6 h, 1 %) of the same molecule?
Its value is 15.4.

What about the “CYP1B1 expression compared to control” value ([2]; 6 h, 1 %) of the same molecule?
The value was 7.1.

What about the “FTH1P expression compared to control” value ([2]; 6 h, 1 %) of the same molecule?
The value was 1.3.

What about the “FTL expression compared to control” value ([2]; 6 h, 1 %) of the same molecule?
Its value is 1.5.

What about the “GCLC expression compared to control” value ([2]; 6 h, 1 %) of the same molecule?
The value was 1.3.

What about the “HMOX1 expression compared to control” value ([2]; 6 h, 1 %) of the same molecule?
Its value is 1.0.

And the “NQO1 expression compared to control” value ([2]; 6 h, 1 %)?
The value was 1.3.

And the “S100A8 expression compared to control” value ([2]; 6 h, 1 %)?
Its value is 1.4.

And the “TXNRD1 expression compared to control” value ([2]; 6 h, 1 %)?
The value was 2.1.

What about the “UGT1A1 expression compared to control” value ([2]; 6 h, 1 %) of the same molecule?
The value was 1.4.

And the “AKR1B10 expression compared to control” value ([2]; 6 h, 10 %)?
Its value is 1.0.

What about the “AKR1C1 expression compared to control” value ([2]; 6 h, 10 %) of the same molecule?
The value was 2.6.

What about the “AKR1C2 expression compared to control” value ([2]; 6 h, 10 %) of the same molecule?
Its value is 1.8.

What about the “CD36 expression compared to control” value ([2]; 6 h, 10 %) of the same molecule?
The value was 0.7.

What about the “CYP1A1 expression compared to control” value ([2]; 6 h, 10 %) of the same molecule?
Its value is 33.2.

What about the “CYP1B1 expression compared to control” value ([2]; 6 h, 10 %) of the same molecule?
Its value is 17.1.

What about the “FTH1P expression compared to control” value ([2]; 6 h, 10 %) of the same molecule?
Its value is 1.4.

What about the “FTL expression compared to control” value ([2]; 6 h, 10 %) of the same molecule?
Its value is 1.9.

And the “GCLC expression compared to control” value ([2]; 6 h, 10 %)?
The value was 1.5.

What about the “HMOX1 expression compared to control” value ([2]; 6 h, 10 %) of the same molecule?
The value was 1.2.

What about the “NQO1 expression compared to control” value ([2]; 6 h, 10 %) of the same molecule?
The value was 1.5.

What about the “S100A8 expression compared to control” value ([2]; 6 h, 10 %) of the same molecule?
The value was 1.4.

And the “TXNRD1 expression compared to control” value ([2]; 6 h, 10 %)?
The value was 2.6.

What about the “UGT1A1 expression compared to control” value ([2]; 6 h, 10 %) of the same molecule?
Its value is 1.5.

What about the “AHR expression compared to control” value ([2]; 6 h, 50 %) of the same molecule?
Its value is 0.9.

What about the “AKR1B10 expression compared to control” value ([2]; 6 h, 50 %) of the same molecule?
Its value is 1.1.

What about the “AKR1C1 expression compared to control” value ([2]; 6 h, 50 %) of the same molecule?
The value was 3.5.

What about the “AKR1C2 expression compared to control” value ([2]; 6 h, 50 %) of the same molecule?
Its value is 3.7.

And the “CD36 expression compared to control” value ([2]; 6 h, 50 %)?
Its value is 0.8.

What about the “CYP1A1 expression compared to control” value ([2]; 6 h, 50 %) of the same molecule?
Its value is 57.8.

What about the “CYP1B1 expression compared to control” value ([2]; 6 h, 50 %) of the same molecule?
The value was 49.5.

What about the “FTH1P expression compared to control” value ([2]; 6 h, 50 %) of the same molecule?
The value was 2.1.

What about the “FTL expression compared to control” value ([2]; 6 h, 50 %) of the same molecule?
Its value is 3.5.

And the “GCLC expression compared to control” value ([2]; 6 h, 50 %)?
The value was 2.4.

What about the “GCLM expression compared to control” value ([2]; 6 h, 50 %) of the same molecule?
The value was 3.8.

What about the “HMOX1 expression compared to control” value ([2]; 6 h, 50 %) of the same molecule?
Its value is 3.5.

What about the “NQO1 expression compared to control” value ([2]; 6 h, 50 %) of the same molecule?
Its value is 2.8.

And the “NQO2 expression compared to control” value ([2]; 6 h, 50 %)?
The value was 2.0.

And the “S100A8 expression compared to control” value ([2]; 6 h, 50 %)?
Its value is 1.4.

And the “SLC7A11 expression compared to control” value ([2]; 6 h, 50 %)?
Its value is 5.4.

And the “TXNRD1 expression compared to control” value ([2]; 6 h, 50 %)?
Its value is 7.9.

What about the “UGT1A1 expression compared to control” value ([2]; 6 h, 50 %) of the same molecule?
The value was 1.9.

And the “UGT1A9 expression compared to control” value ([2]; 6 h, 50 %)?
The value was 1.7.

Reference: US9255295B2, “Method for evaluating the sensitizing potential of a test compound” (IMMUNOSEARCH, priority 2010, dated 2016)
